Reference: ChEMBL document CHEMBL1154499 (Bioorg Med Chem Lett, 2008)

Key:
[1] = target: T1, Transcriptional activator protein TraR (Agrobacterium tumefaciens, UniProt P33905); test: Antagonist activity at Agrobacterium tumefaciens WCF47 TraR receptor assessed as inhibition of OOHL-induced response by beta-galctosidase reporter gene assay
T1 sequence (P33905 whole entry): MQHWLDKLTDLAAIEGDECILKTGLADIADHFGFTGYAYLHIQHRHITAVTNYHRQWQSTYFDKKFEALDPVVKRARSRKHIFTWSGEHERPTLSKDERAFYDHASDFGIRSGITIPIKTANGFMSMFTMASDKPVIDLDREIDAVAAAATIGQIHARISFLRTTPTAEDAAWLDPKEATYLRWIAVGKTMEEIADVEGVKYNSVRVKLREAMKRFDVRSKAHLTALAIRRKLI

[2] = (§1) Antagonist activity at Escherichia coli DH5alpha LasR receptor assessed as inhibition of OdDHL-induced response by beta-galctosidase reporter gene assay; format: functional
Escherichia coli [3] = test: as §1; format: functional; settings: dose or concentration not given here
[4] = target: T2, Transcriptional activator protein LuxR (Vibrio fischeri (strain ATCC 700601 / ES114), UniProt P35327); test: (§2) Antagonist activity at Vibrio fischeri ES114 LuxR receptor assessed as inhibition of OHHL-induced response by luciferase reporter gene assay; format: functional, Aliivibrio fischeri
T2 sequence (P35327 whole entry): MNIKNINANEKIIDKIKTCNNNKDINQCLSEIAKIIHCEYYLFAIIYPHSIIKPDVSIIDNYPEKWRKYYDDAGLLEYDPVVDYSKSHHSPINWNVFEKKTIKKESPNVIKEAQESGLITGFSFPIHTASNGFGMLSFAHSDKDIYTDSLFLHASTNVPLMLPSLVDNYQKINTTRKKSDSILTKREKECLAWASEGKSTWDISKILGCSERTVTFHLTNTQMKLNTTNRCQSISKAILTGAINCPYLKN

[5] = target: T3, Transcriptional activator protein LuxR (Vibrio fischeri (strain ATCC 700601 / ES114)) (UniProt P35327); test: as §2; format: functional; settings: Aliivibrio fischeri, concentration not given here
T3 sequence (whole entry): T2 sequence (P35327 whole entry)

[6] = Agonist activity at Escherichia coli DH5alpha LasR receptor by beta-galctosidase reporter gene assay; format: functional
[7] = target: T3, Transcriptional activator protein LuxR (Vibrio fischeri (strain ATCC 700601 / ES114)); test: Agonist activity at Vibrio fischeri ES114 LuxR receptor at 100 uM by luciferase reporter gene assay relative to OHHL; format: functional; settings: Aliivibrio fischeri
Escherichia coli [8] = test: Agonist activity at Escherichia coli DH5alpha LasR receptor at 100 uM by beta-galctosidase reporter gene assay relative to OdDHL; format: functional

Row | Structure (SMILES) | IC50 [1] [µM] | IC50 [2] [µM] | IC50 [4] [µM] | other results
1 | O=C(CCc1ccc([N+](=O)[O-])cc1)N[C@H]1CCOC1=O | 1.6 | 3 | 0.99 | inhibition (Escherichia coli [3]): 67%
2 | O=C(COc1ccc(C(F)(F)F)cc1)N[C@H]1CCOC1=O | 1.6 | – | – | –
3 | COc1cccc(CC(=O)N[C@H]2CCOC2=O)c1 | – | – | 2.5 | inhibition [5]: 85%
4 | O=C(Cc1cccc2ccccc12)N[C@H]1CCOC1=O | – | – | 1.3 | –
5 | COc1ccc(CCC(=O)N[C@H]2CCOC2=O)cc1 | – | 6.8 | – | –
6 | O=C(CCc1cccc(I)c1)N[C@H]1CCOC1=O | – | 1.8 | 0.39 | –
7 | O=C(CCc1ccc(Cl)cc1)N[C@H]1CCOC1=O | 3.3 | 2.2 | 0.97 | –
8 | O=C(Cc1ccc2ccccc2c1)N[C@H]1CCOC1=O | 4.2 | – | 0.94 | –
9 | Cc1cccc(CC(=O)N[C@H]2CCOC2=O)c1 | – | – | 2 | inhibition [5]: 91%
10 | CSc1ccc(CCC(=O)N[C@H]2CCOC2=O)cc1 | 1.1 | – | 1.7 | –
11 | O=C(CCc1ccc(I)cc1)N[C@H]1CCOC1=O | 2.1 | – | 0.63 | –
12 | O=C(CCc1ccc(C(F)(F)F)cc1)N[C@H]1CCOC1=O | 0.21 | – | 2.2 | EC50 [6]: > 10 µM
13 | O=C(COc1cccc([N+](=O)[O-])c1)N[C@H]1CCOC1=O | – | – | 2.4 | –
14 | N#Cc1cccc(CC(=O)N[C@H]2CCOC2=O)c1 | – | – | – | Activity [7]: 75%
15 | O=C(CCc1ccc2c(c1)OCO2)N[C@H]1CCOC1=O | – | 3.4 | – | –
16 | O=C(Cc1ccc([N+](=O)[O-])cc1)N[C@H]1CCOC1=O | 2.25 | – | 0.96 | –
17 | O=C(COc1ccc(I)cc1)N[C@H]1CCOC1=O | 0.44 | 2 | 1.9 | inhibition (Escherichia coli [3]): 63%
18 | O=C(CCc1ccc(Br)cc1)N[C@H]1CCOC1=O | – | 0.34 | – | –
19 | O=C(COc1ccc(OC(F)(F)F)cc1)N[C@H]1CCOC1=O | – | – | – | EC50 [6]: 6.3 µM; Activity (Escherichia coli [8]): 30%
20 | CCCCCC(=O)CC(=O)N[C@H]1CCOC1=O | – | – | – | EC50 [6]: > 10 µM
21 | O=C(Cc1cccc(I)c1)N[C@H]1CCOC1=O | – | 4.63 | – | –
22 | CSc1cccc(CC(=O)N[C@H]2CCOC2=O)c1 | – | – | 1.5 | –
23 | O=C(Cc1ccc(SC(F)(F)F)cc1)N[C@H]1CCOC1=O | 4.7 | – | 1.3 | Activity (Escherichia coli [8]): 65%

Row | Structure (SMILES) | IC50 [1] [µM] | IC50 [2] [µM] | IC50 [4] [µM] | other results
24 | O=C(COc1ccc(Br)cc1)N[C@H]1CCOC1=O | 0.51 | 2.1 | 3 | inhibition (Escherichia coli [3]): 67%
25 | COc1ccc(OCC(=O)N[C@H]2CCOC2=O)cc1 | 4.3 | – | – | –
26 | CCCC(=O)CC(=O)N[C@H]1CCOC1=O | – | – | – | EC50 [6]: > 10 µM
27 | O=C(Cc1cc(C(F)(F)F)cc(C(F)(F)F)c1)N[C@H]1CCOC1=O | – | – | – | EC50 [6]: 6.3 µM; Activity [7]: 70%
28 | Cc1ccc(CCC(=O)N[C@H]2CCOC2=O)cc1 | – | 4.3 | 2.2 | –
29 | O=C(COc1ccc(F)cc1)N[C@H]1CCOC1=O | 2.7 | – | – | –
30 | O=C(CCc1cccc(Br)c1)N[C@H]1CCOC1=O | – | 3.3 | 0.53 | –
31 | O=C(Cc1ccc(I)cc1)N[C@H]1CCOC1=O | 1.25 | 1.72 | – | –
32 | O=C(CCc1ccc(F)cc1)N[C@H]1CCOC1=O | – | 12 | 2.7 | –
33 | O=C(Cc1cccc([N+](=O)[O-])c1)N[C@H]1CCOC1=O | – | 0.61 | – | –
34 | CSc1ccc(CC(=O)N[C@H]2CCOC2=O)cc1 | 8.4 | – | 2.1 | –
35 | O=C(COc1ccc([N+](=O)[O-])cc1)N[C@H]1CCOC1=O | 0.29 | – | – | –
36 | O=C(Cc1ccc(F)c(C(F)(F)F)c1)N[C@H]1CCOC1=O | – | – | 1 | –
37 | O=C(Cc1ccc(Cl)c(Cl)c1)N[C@H]1CCOC1=O | 2.4 | – | – | –
38 | Cc1ccc(OCC(=O)N[C@H]2CCOC2=O)cc1 | 1.8 | – | – | –
39 | O=C(COc1ccc(Cl)cc1)N[C@H]1CCOC1=O | 0.62 | 4.7 | – | –
40 | Cc1cccc(OCC(=O)N[C@H]2CCOC2=O)c1 | 1.1 | 7.8 | – | –
41 | O=C(Cc1cccc(C(F)(F)F)c1)N[C@H]1CCOC1=O | – | – | 1.4 | –
42 | Cc1cccc(CCC(=O)N[C@H]2CCOC2=O)c1 | – | 8.9 | 2.1 | –
43 | O=C(CCc1cccc([N+](=O)[O-])c1)N[C@H]1CCOC1=O | – | 3.4 | 0.88 | –
44 | O=C(CCc1cccc(C(F)(F)F)c1)N[C@H]1CCOC1=O | – | – | 0.5 | –
45 | CCCCCCCCCC(=O)CC(=O)N[C@H]1CCOC1=O | – | – | – | EC50 [6]: 0.01 µM
